Structures can show the parent of a compound that is named as a salt.
Tested on: female CRL:CD rats
Assay: Bone densitometry (pQCT) of right femur in rats
Assay type: in vivo, rat
Conditions: oral once a day, 14 consecutive days, 15 mg/kg
Protocol: For in vitro osteogenesis, human adipose-derived stem cells (hADSC) (Invitrogen, UK; catalogue number R7788-115) were seeded into 12-well plates at a density of 5000 cells/cm^2 and were cultured in a basal media of phenol red-free Dulbecco's Modified Eagles Medium (DMEM; Sigma-Aldrich, UK; catalogue number D1145) supplemented with 5% fetal bovine serum (FBS, Gibco, UK; catalogue number 10270) and 2 mM GlutaMax® (Gibco; catalogue number 35050). […] The formation of mineralized bone nodules was assessed during the time-course using Alizarin Red S staining. […] The amount of mineralisation was quantified through the extraction of the Alizarin Red S stain from bone nodules using a cetylpyridinium chloride extraction method, previously described (Gregory et al., Analytical Biochemistry, 2004, 329: 77-84; Hwang et al., Stem Cells and Development 17: 963-970, 2008). […] Following incubation, 200 μl aliquots were transferred to 96-well format and the absorbance at 550 nm was determined using a microplate spectrophotometer (SpectraMax Plus, Molecular Devices, USA). Data were expressed as mean absorbance at 550 nm±Standard error of mean (SEM). […] Data are shown as mean absorbance at 550 nm and analysed using one-way ANOVA followed by Tukey's multiple comparison post hoc test: n=9; ***, P<0.001. […]

SMILES: COCCCNCCCc1ccc(-c2cnc(N)c(C(=O)Nc3cccnc3)n2)cc1 [Example 1, 3-Amino-6-(4-{3-[(3-methoxypropyl)amino]propyl}phenyl)-N-pyridin-3-ylpyrazine-2-carboxamide tri-hydrochloride]
- Increase in right femur metaphysis total BMD compared with vehicle treated rats: 6.6%
- Total BMD in femur (mean±SEM): 814.41 ± 15 mg/mL

— patent US8198285B2, “Pyrazine derivatives” (Astrazeneca AB, priority 2010, dated 2012)
